target: T1, spCas9:gRNA complex (Streptococcus pyogenes serotype M1, UniProt Q99ZW2); assay: in vitro DNA cleavage assay (agarose gel); assay type: biochemical; details: ACM37 and pyrrolylthiazole analogues, 200µM or 500µM; Figure 4
T1 construct: purchased New England Biolabs
Experimental: The in vitro DNA cleavage assay was carried out as described by (Pawluk, N et al., 2016) with the following modifications. SpyCas9 (New England Biolabs) (5nM) was incubated with candidate compound (50∼500µM) for 15 min at 37°C in Cas9 nuclease buffer (New England Biolabs). Alt-R crRNA:tracrRNA (Integrated DNA Technologies) (6nM) was added later and incubated again for 15min at 37°C. Finally, target dsDNA (1nM) was added and incubated for 10 min at 37°C for the cleavage. The reaction was stopped by adding Proteinase K. The cleaved and un-cleaved fraction of target dsDNA were visualized after separation on a 1% agarose gel.
Control assays were performed in parallel, where the candidate compound was substituted with 5µM AcrIIA2, as positive control; either 5µM GFP protein or no protein (DMSO) as negative control; and phenolic Mannich base inhibitor, ZL006 (Sigma-Aldrich). The AcrIIA2 and GFP proteins were obtained from E. coli cells transformed with the AcrIIA2- and GFP-expression plasmids (see example 1.2 and 1.3).

T1 sequence (Q99ZW2 whole entry, one chain of several): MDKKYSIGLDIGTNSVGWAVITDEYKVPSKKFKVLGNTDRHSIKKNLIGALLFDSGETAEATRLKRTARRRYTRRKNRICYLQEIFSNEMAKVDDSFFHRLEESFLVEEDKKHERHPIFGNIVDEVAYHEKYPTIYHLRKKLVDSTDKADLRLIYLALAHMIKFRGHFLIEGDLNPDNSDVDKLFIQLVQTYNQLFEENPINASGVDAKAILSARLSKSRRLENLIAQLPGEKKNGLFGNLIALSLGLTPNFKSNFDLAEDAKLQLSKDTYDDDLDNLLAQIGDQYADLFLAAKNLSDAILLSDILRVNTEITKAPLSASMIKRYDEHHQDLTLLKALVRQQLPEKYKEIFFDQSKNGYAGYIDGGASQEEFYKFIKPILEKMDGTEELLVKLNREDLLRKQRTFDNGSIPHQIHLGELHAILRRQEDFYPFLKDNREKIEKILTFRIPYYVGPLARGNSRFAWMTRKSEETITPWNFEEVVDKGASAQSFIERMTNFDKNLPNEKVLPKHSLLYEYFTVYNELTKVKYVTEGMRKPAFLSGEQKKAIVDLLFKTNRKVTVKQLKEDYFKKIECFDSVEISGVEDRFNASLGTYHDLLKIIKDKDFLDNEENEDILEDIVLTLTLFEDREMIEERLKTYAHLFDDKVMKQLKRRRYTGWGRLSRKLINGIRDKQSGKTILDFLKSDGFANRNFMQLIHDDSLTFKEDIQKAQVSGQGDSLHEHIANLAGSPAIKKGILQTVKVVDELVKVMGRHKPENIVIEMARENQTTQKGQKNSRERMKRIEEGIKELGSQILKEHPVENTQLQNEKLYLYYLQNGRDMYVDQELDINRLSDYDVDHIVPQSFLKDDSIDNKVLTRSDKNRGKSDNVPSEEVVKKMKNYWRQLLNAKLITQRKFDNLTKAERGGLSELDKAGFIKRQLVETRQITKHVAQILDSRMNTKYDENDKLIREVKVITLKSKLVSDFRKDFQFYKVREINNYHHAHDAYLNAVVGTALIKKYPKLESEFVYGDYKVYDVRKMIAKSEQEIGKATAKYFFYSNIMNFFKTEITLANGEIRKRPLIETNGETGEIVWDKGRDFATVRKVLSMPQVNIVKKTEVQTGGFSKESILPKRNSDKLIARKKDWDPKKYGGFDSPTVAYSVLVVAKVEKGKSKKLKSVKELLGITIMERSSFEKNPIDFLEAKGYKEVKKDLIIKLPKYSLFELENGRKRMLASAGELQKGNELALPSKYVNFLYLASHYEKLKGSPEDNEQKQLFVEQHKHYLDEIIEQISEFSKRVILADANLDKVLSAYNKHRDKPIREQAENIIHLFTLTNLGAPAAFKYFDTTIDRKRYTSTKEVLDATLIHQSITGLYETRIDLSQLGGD

`Cc1cc(NS(=O)(=O)c2cc(-c3nc(C)c(C(=O)N4CCC(C)CC4)s3)n(C)c2C)no1` [ACM37, 1,2-Dimethyl-5-(4-methyl-5-(4-methylpiperidine-1-carbonyl)thiazol-2-yl)-N-(5-methylisoxazol-3-yl)-1H-pyrrole-3-sulfonamide] was tested. Which “inhibitors of spCas9:gRNA mediated target DNA cleavage” value did it give?
The value was “most potent inhibitors”.

Which “inhibitors of spCas9:gRNA mediated target DNA cleavage” value does the source give for `Cc1cc(NS(=O)(=O)c2cc(-c3nc(C)c(C(=O)N4CCCCCC4)s3)n(C)c2C)no1` [ACM37-A10, 5-(5-(Azepane-1-carbonyl)-4-methylthiazol-2-yl)-1,2-dimethyl-N-(5-methylisoxazol-3-yl)-1H-pyrrole-3-sulfonamide] here?
Its value is “most potent inhibitors”.

For `Cc1cc(NS(=O)(=O)c2cc(-c3nc(C)c(C(=O)N4CCC(C)CC4)s3)n(C)c2)no1` [ACM37-A13], which “inhibitors of spCas9:gRNA mediated target DNA cleavage” value is on record?
Its value is “most potent inhibitors”.

Which “inhibitors of spCas9:gRNA mediated target DNA cleavage” value does the source give for `Cc1cc(NS(=O)(=O)c2cc(-c3nc(C)c(C(=O)N4CCCCC4)s3)n(C)c2C)no1` [ACM37-A19, 1,2-Dimethyl-5-(4-methyl-5-(piperidine-1-carbonyl)thiazol-2-yl)-N-(5-methylisoxazol-3-yl)-1H-pyrrole-3-sulfonamide] here?
Its value is “most potent inhibitors”.

With `Cc1nc(-c2cc(S(=O)(=O)Nc3ccon3)cn2C)sc1C(=O)N1CCC(C)CC1` [ACM37-A23a, N-(isoxazol-3-yl)-1-methyl-5-(4-methyl-5-(4-methylpiperidine-1-carbonyl)thiazol-2-yl)-1H-pyrrole-3-sulfonamide] as the molecule, how does the “inhibitors of spCas9:gRNA mediated target DNA cleavage” value read?
Its value is “most potent inhibitors”.

same assay, conditions: Figure 5; printed order: ACM37-A17c, then ACM37-A17, ACM37-A17p, ACM37-A17a, ACM37-A17n, ACM37-A17f

How did the “relative potency as inhibitor of spCas9:gRNA mediated target DNA cleavage” value turn out when `CC1CCN(C(=O)c2cccc(-c3ccccc3)c2)CC1` [ACM37-A17c, [1,1'-Biphenyl]-3-yl(4-methylpiperidin-1-yl)methanone] was run?
Its value is “most potent”.

same assay, conditions: biphenyl analogues, 80µM or 200µM; Figure 5

Which “inhibitors of spCas9:gRNA mediated target DNA cleavage” value does the source give for `Cc1cc(NS(=O)(=O)c2ccc(-c3cccc(C(=O)N4CCC(C)CC4)c3)cc2)no1` [ACM37-A17, N-(5-Methylisoxazol-3-yl)-3'-(4-methylpiperidine-1-carbonyl)-[1,1'-biphenyl]-4-sulfonamide] here?
Its value is “inhibitors”.

With `CC1CCN(C(=O)c2cccc(-c3ccc(S(=O)(=O)Nc4ccon4)cc3)c2)CC1` [ACM37-A17a, N-(Isoxazol-3-yl)-3'-(4-methylpiperidine-1-carbonyl)-[1,1'-biphenyl]-4-sulfonamide] as the molecule, how does the “inhibitors of spCas9:gRNA mediated target DNA cleavage” value read?
The value was “inhibitors”.

`CC1CCN(C(=O)c2cccc(-c3ccccc3)c2)CC1` [ACM37-A17c, [1,1'-Biphenyl]-3-yl(4-methylpiperidin-1-yl)methanone] was tested. Which “inhibitors of spCas9:gRNA mediated target DNA cleavage” value did it give?
Its value is “inhibitors”.

`Cc1cc(NS(=O)(=O)c2ccc(-c3ccccc3)cc2)no1` [ACM37-A17f, N-(5-Methylisoxazol-3-yl)-[1,1'-biphenyl]-4-sulfonamide] was tested. Which “inhibitors of spCas9:gRNA mediated target DNA cleavage” value did it give?
The value was “inhibitors”.

With `O=S(=O)(Nc1ccon1)c1ccc(-c2ccccc2)cc1` [ACM37-A17n, N-(Isoxazol-3-yl)-[1,1'-biphenyl]-4-sulfonamide] as the molecule, how does the “inhibitors of spCas9:gRNA mediated target DNA cleavage” value read?
The value was “inhibitors”.

Which “inhibitors of spCas9:gRNA mediated target DNA cleavage” value does the source give for `Cc1cc(NS(=O)(=O)c2cccc(-c3ccccc3)c2)no1` [ACM37-A17p, N-(5-Methylisoxazol-3-yl)-[1,1'-biphenyl]-3-sulfonamide] here?
The value was “inhibitors”.

same assay, conditions: re-screen of the 52 candidate compounds, 50∼500µM; Figure 3

For `Cc1cc(NS(=O)(=O)c2cc(-c3nc(C)c(C(=O)N4CCC(C)CC4)s3)n(C)c2C)no1` [ACM37, 1,2-Dimethyl-5-(4-methyl-5-(4-methylpiperidine-1-carbonyl)thiazol-2-yl)-N-(5-methylisoxazol-3-yl)-1H-pyrrole-3-sulfonamide], which “inhibitor of cleavage of a target DNA molecule by the spCas9:gRNA complex” value is on record?
The value was “most potent and specific inhibitor”.

Source: patent publication EP3831940A1, “SMALL MOLECULE INHIBITORS OF CRISPR-CAS ASSOCIATED ACTIVITY” (Danmarks Tekniske Universitet, priority 2019, dated 2021)
